Active and inactive are the calls of the source. How the calls were made is not given here.
System: CCRIS mutagenicity, Ames/micronucleus/aberration tests
Assay: CCRIS mutagenicity studies
[1] = Test System: AMES SALMONELLA TYPHIMURIUM, Strain/Indicator: TA98, Metabolic Activation: NONE, Method: STANDARD PLATE
[2] = Test System: AMES SALMONELLA TYPHIMURIUM, Strain/Indicator: TA98, Metabolic Activation: RAT, LIVER, S-9, AROCLOR 1254, Method: STANDARD PLATE
[3] = Test System: CHINESE HAMSTER V-79, Strain/Indicator: V-79/8-AZAGUANINE, Metabolic Activation: NONE, Method: STANDARD PLATE
[4] = Test System: AMES SALMONELLA TYPHIMURIUM, Strain/Indicator: TA98, Metabolic Activation: HAMSTER, LIVER, S-9, AROCLOR 1254 (10%), Method: PREINCUBATION
[5] = Test System: AMES SALMONELLA TYPHIMURIUM, Strain/Indicator: TA98, Metabolic Activation: NONE, Method: PREINCUBATION
[6] = Test System: AMES SALMONELLA TYPHIMURIUM, Strain/Indicator: TA98, Metabolic Activation: RAT, LIVER, S-9, AROCLOR 1254 (10%), Method: PREINCUBATION
[7] = Test System: AMES SALMONELLA TYPHIMURIUM, Strain/Indicator: TA100, Metabolic Activation: HAMSTER, LIVER, S-9, AROCLOR 1254 (10%), Method: PREINCUBATION
[8] = Test System: AMES SALMONELLA TYPHIMURIUM, Strain/Indicator: TA100, Metabolic Activation: NONE, Method: PREINCUBATION
[9] = Test System: AMES SALMONELLA TYPHIMURIUM, Strain/Indicator: TA100, Metabolic Activation: RAT, LIVER, S-9, AROCLOR 1254 (10%), Method: PREINCUBATION
[10] = Test System: AMES SALMONELLA TYPHIMURIUM, Strain/Indicator: TA1535, Metabolic Activation: HAMSTER, LIVER, S-9, AROCLOR 1254 (10%), Method: PREINCUBATION
[11] = Test System: AMES SALMONELLA TYPHIMURIUM, Strain/Indicator: TA1535, Metabolic Activation: NONE, Method: PREINCUBATION
[12] = Test System: AMES SALMONELLA TYPHIMURIUM, Strain/Indicator: TA1535, Metabolic Activation: RAT, LIVER, S-9, AROCLOR 1254 (10%), Method: PREINCUBATION
[13] = Test System: AMES SALMONELLA TYPHIMURIUM, Strain/Indicator: TA1537, Metabolic Activation: HAMSTER, LIVER, S-9, AROCLOR 1254 (10%), Method: PREINCUBATION
[14] = Test System: AMES SALMONELLA TYPHIMURIUM, Strain/Indicator: TA1537, Metabolic Activation: NONE, Method: PREINCUBATION
[15] = Test System: AMES SALMONELLA TYPHIMURIUM, Strain/Indicator: TA1537, Metabolic Activation: RAT, LIVER, S-9, AROCLOR 1254 (10%), Method: PREINCUBATION

Structure (SMILES): CC(=O)Nc1ccc2c(=O)c(=O)c3cccc4ccc1c2c43
- mutagenic call (Test System: AMES SALMONELLA TYPHIMURIUM, Strain/Indicator: TA98(1,8-DNP6), Metabolic Activation: NONE, Method: STANDARD PLATE): inactive; negative
- mutagenic call (Test System: AMES SALMONELLA TYPHIMURIUM, Strain/Indicator: TA98(1,8-DNP6), Metabolic Activation: RAT, LIVER, S-9, AROCLOR 1254, Method: STANDARD PLATE): active; positive
- mutagenic call [1]: inactive; negative
- mutagenic call [2]: active; positive
- mutagenic call (Test System: AMES SALMONELLA TYPHIMURIUM, Strain/Indicator: YG1024, Metabolic Activation: NONE, Method: STANDARD PLATE): inactive; negative
- mutagenic call (Test System: AMES SALMONELLA TYPHIMURIUM, Strain/Indicator: YG1024, Metabolic Activation: RAT, LIVER, S-9, AROCLOR 1254, Method: STANDARD PLATE): active; positive

Structure (SMILES): Cc1ccc2cc3c4c(ccc3c3c2c1CC3)C=C[C@H](O)[C@H]4O
- mutagenic call [3]: active; positive

Structure (SMILES): CCN(CC)C(=S)SSC(=S)N(CC)CC
- mutagenic call [4]: inactive; negative
- mutagenic call [5]: inactive; negative
- mutagenic call [6]: inactive; negative
- mutagenic call [7]: inactive; negative
- mutagenic call [8]: inactive; negative
- mutagenic call [9]: inactive; negative
- mutagenic call [10]: inactive; negative
- mutagenic call [11]: inactive; negative
- mutagenic call [12]: inactive; negative
- mutagenic call [13]: inactive; negative
- mutagenic call [14]: inactive; negative
- mutagenic call [15]: inactive; negative
- mutagenic call (Test System: MOUSE LYMPHOMA, Strain/Indicator: L5178Y (TK+/TK-), Metabolic Activation: NONE, Method: SUSPENSION/PLATE): active; positive

Structure (SMILES): CC(=O)NNc1ccccc1
- mutagenic call (Test System: AMES SALMONELLA TYPHIMURIUM, Strain/Indicator: TA97, Metabolic Activation: HAMSTER, LIVER, S-9, AROCLOR 1254 (5%), Method: PREINCUBATION): inactive; negative
- mutagenic call (Test System: AMES SALMONELLA TYPHIMURIUM, Strain/Indicator: TA97, Metabolic Activation: HAMSTER, LIVER, S-9, AROCLOR 1254 (10%), Method: PREINCUBATION): inactive; negative
- mutagenic call (Test System: AMES SALMONELLA TYPHIMURIUM, Strain/Indicator: TA97, Metabolic Activation: HAMSTER, LIVER, S-9, AROCLOR 1254 (30%), Method: PREINCUBATION): active; positive
- mutagenic call (Test System: AMES SALMONELLA TYPHIMURIUM, Strain/Indicator: TA97, Metabolic Activation: NONE, Method: PREINCUBATION): active; positive
- mutagenic call (Test System: AMES SALMONELLA TYPHIMURIUM, Strain/Indicator: TA97, Metabolic Activation: RAT, LIVER, S-9, AROCLOR 1254 (5, 10 OR 30%), Method: PREINCUBATION): inactive; negative
- mutagenic call (Test System: AMES SALMONELLA TYPHIMURIUM, Strain/Indicator: TA98, Metabolic Activation: HAMSTER, LIVER, S-9, AROCLOR 1254 (5, 10 OR 30%), Method: PREINCUBATION): inactive; negative
- mutagenic call [5]: inactive; negative
- mutagenic call (Test System: AMES SALMONELLA TYPHIMURIUM, Strain/Indicator: TA98, Metabolic Activation: RAT, LIVER, S-9, AROCLOR 1254 (5, 10 OR 30%), Method: PREINCUBATION): inactive; negative
- mutagenic call (Test System: AMES SALMONELLA TYPHIMURIUM, Strain/Indicator: TA100, Metabolic Activation: HAMSTER, LIVER, S-9, AROCLOR 1254 (5%), Method: PREINCUBATION): inactive; negative
- mutagenic call [7]: inactive; negative
- mutagenic call (Test System: AMES SALMONELLA TYPHIMURIUM, Strain/Indicator: TA100, Metabolic Activation: HAMSTER, LIVER, S-9, AROCLOR 1254 (30%), Method: PREINCUBATION): inactive; negative
- mutagenic call [8]: inactive; negative
- mutagenic call (Test System: AMES SALMONELLA TYPHIMURIUM, Strain/Indicator: TA100, Metabolic Activation: RAT, LIVER, S-9, AROCLOR 1254 (5%), Method: PREINCUBATION): inactive; negative
- mutagenic call [9]: inactive; negative
- mutagenic call (Test System: AMES SALMONELLA TYPHIMURIUM, Strain/Indicator: TA100, Metabolic Activation: RAT, LIVER, S-9, AROCLOR 1254 (30%), Method: PREINCUBATION): inactive; negative
- mutagenic call [10]: inactive; negative
- mutagenic call (Test System: AMES SALMONELLA TYPHIMURIUM, Strain/Indicator: TA1535, Metabolic Activation: HAMSTER, LIVER, S-9, AROCLOR 1254 (30%), Method: PREINCUBATION): inactive; negative
- mutagenic call [11]: active; positive
- mutagenic call (Test System: AMES SALMONELLA TYPHIMURIUM, Strain/Indicator: TA1535, Metabolic Activation: RAT, LIVER, S-9, AROCLOR 1254 (5%), Method: PREINCUBATION): inactive; negative
- mutagenic call [12]: inactive; negative
- mutagenic call (Test System: AMES SALMONELLA TYPHIMURIUM, Strain/Indicator: TA1535, Metabolic Activation: RAT, LIVER, S-9, AROCLOR 1254 (30%), Method: PREINCUBATION): inactive; negative

Structure (SMILES): COC(=O)Nc1nc2ccc(O)cc2[nH]1
- mutagenic call [1]: inactive; negative
- mutagenic call [2]: inactive; negative
- mutagenic call (Test System: AMES SALMONELLA TYPHIMURIUM, Strain/Indicator: TA100, Metabolic Activation: NONE, Method: STANDARD PLATE): inactive; negative
- mutagenic call (Test System: AMES SALMONELLA TYPHIMURIUM, Strain/Indicator: TA100, Metabolic Activation: RAT, LIVER, S-9, AROCLOR 1254, Method: STANDARD PLATE): inactive; negative
- mutagenic call (Test System: AMES SALMONELLA TYPHIMURIUM, Strain/Indicator: TA1535, Metabolic Activation: NONE, Method: STANDARD PLATE): inactive; negative
- mutagenic call (Test System: AMES SALMONELLA TYPHIMURIUM, Strain/Indicator: TA1535, Metabolic Activation: RAT, LIVER, S-9, AROCLOR 1254, Method: STANDARD PLATE): inactive; negative
- mutagenic call (Test System: AMES SALMONELLA TYPHIMURIUM, Strain/Indicator: TA1537, Metabolic Activation: NONE, Method: STANDARD PLATE): inactive; negative
- mutagenic call (Test System: AMES SALMONELLA TYPHIMURIUM, Strain/Indicator: TA1537, Metabolic Activation: RAT, LIVER, S-9, AROCLOR 1254, Method: STANDARD PLATE): inactive; negative

Structure (SMILES): O[C@@H]1c2ccc3cc4ccccc4cc3c2[C@@H]2OC2[C@@H]1O (stereo partly specified)
- mutagenic call [3]: active; positive

Structure (SMILES): C=CC(=O)OCC1CO1 (stereo unspecified)
- mutagenic call [7]: active; positive
- mutagenic call [8]: active; positive
- mutagenic call [9]: active; positive
- mutagenic call [10]: active; positive
- mutagenic call [11]: active; positive
- mutagenic call [12]: active; positive

Structure (SMILES): C=C1C(=O)O[C@@H]2CCN3CC=C(COC(=O)[C@](C)(O)[C@H](C)[C@H]1C)[C@H]23
- mutagenic call (Test System: AMES SALMONELLA TYPHIMURIUM, Strain/Indicator: TA100, Metabolic Activation: RAT, LIVER, S-9, SODIUM PHENOBARBITAL AND BETA-NAPHTHOFLAVONE, Method: PREINCUBATION): inactive; negative

Structure (SMILES): O=c1nc(O)n(Cl)c(=O)n1Cl
- mutagenic call [4]: inactive; negative
- mutagenic call [5]: inactive; negative
- mutagenic call [6]: inactive; negative
- mutagenic call [7]: inactive; negative
- mutagenic call [8]: inactive; negative
- mutagenic call [9]: inactive; negative
- mutagenic call [10]: inactive; negative
- mutagenic call [11]: inactive; negative
- mutagenic call [12]: inactive; negative
- mutagenic call [13]: inactive; negative
- mutagenic call [14]: inactive; negative
- mutagenic call [15]: inactive; negative

Structure (SMILES): CCc1c(O)c(=O)ccn1CC
- mutagenic call (Test System: Mouse lymphoma, Strain/Indicator: L5178Y (tk+/tk-), Metabolic Activation: None, Method: Suspension/plate): active; positive
- mutagenic call (Test System: Mouse lymphoma, Strain/Indicator: L5178Y (tk+/tk-), Metabolic Activation: Rat, Liver, S-9, Aroclor 1254, Method: Suspension/plate): active; positive
